Reference: the NIST ThermoML archive (doi:10.1016/j.jct.2015.01.004)
“And” between values parts separate entries of the source, which are not always exact repeats. Equal values may be shown once. Numbers after ± are expanded uncertainties.

Test: molar heat capacity at constant pressure; xn = mol fraction of the nth substance listed
Details: 100 kPa

[Si] [silicon] + [Li]
Details	molar heat capacity at constant pressure
12.56 K, Crystal of intercomponent compound 2, relaxation calorimeter, x2 = 0.804	0.0482 ± 0.0038 J/K/mol and 0.0474 ± 0.0037 J/K/mol
13.23 K, Crystal of intercomponent compound 1, relaxation calorimetry, x2 = 0.81	0.0671 ± 0.0053 J/K/mol
13.23 K, Crystal of intercomponent compound 2, relaxation calorimeter, x2 = 0.804	0.0553 ± 0.0043 J/K/mol
13.24 K, Crystal of intercomponent compound 2, relaxation calorimeter, x2 = 0.804	0.0547 ± 0.0043 J/K/mol
13.94 K, Crystal of intercomponent compound 1, relaxation calorimetry, x2 = 0.81	0.0741 ± 0.0058 J/K/mol
13.94 K, Crystal of intercomponent compound 2, relaxation calorimeter, x2 = 0.804	0.0639 ± 0.005 J/K/mol
13.95 K, Crystal of intercomponent compound 2, relaxation calorimeter, x2 = 0.804	0.0628 ± 0.0049 J/K/mol
14.69 K, Crystal of intercomponent compound 1, relaxation calorimetry, x2 = 0.81	0.083 ± 0.0065 J/K/mol
14.69 K, Crystal of intercomponent compound 2, relaxation calorimeter, x2 = 0.804	0.0753 ± 0.0059 J/K/mol and 0.0743 ± 0.0058 J/K/mol
15 K, Crystal of intercomponent compound 1, relaxation calorimetry + DSC, x2 = 0.81	0.0895 ± 0.007 J/K/mol
15 K, Crystal of intercomponent compound 2, relaxation calorimetry + DSC, x2 = 0.804	0.0803 ± 0.007 J/K/mol
15.47 K, Crystal of intercomponent compound 1, relaxation calorimetry, x2 = 0.81	0.094 ± 0.0074 J/K/mol
15.47 K, Crystal of intercomponent compound 2, relaxation calorimeter, x2 = 0.804	0.0889 ± 0.007 J/K/mol
15.48 K, Crystal of intercomponent compound 2, relaxation calorimeter, x2 = 0.804	0.0879 ± 0.0069 J/K/mol
16.3 K, Crystal of intercomponent compound 1, relaxation calorimetry, x2 = 0.81	0.1071 ± 0.0084 J/K/mol
16.3 K, Crystal of intercomponent compound 2, relaxation calorimeter, x2 = 0.804	0.1049 ± 0.0082 J/K/mol
16.31 K, Crystal of intercomponent compound 2, relaxation calorimeter, x2 = 0.804	0.1039 ± 0.0082 J/K/mol
17.17 K, Crystal of intercomponent compound 1, relaxation calorimetry, x2 = 0.81	0.1224 ± 0.0096 J/K/mol
17.18 K, Crystal of intercomponent compound 2, relaxation calorimeter, x2 = 0.804	0.1233 ± 0.0097 J/K/mol and 0.1231 ± 0.0097 J/K/mol
18.09 K, Crystal of intercomponent compound 1, relaxation calorimetry, x2 = 0.81	0.1403 ± 0.011 J/K/mol
18.09 K, Crystal of intercomponent compound 2, relaxation calorimeter, x2 = 0.804	0.1454 ± 0.011 J/K/mol
18.1 K, Crystal of intercomponent compound 2, relaxation calorimeter, x2 = 0.804	0.1461 ± 0.011 J/K/mol
19.06 K, Crystal of intercomponent compound 1, relaxation calorimetry, x2 = 0.81	0.1618 ± 0.013 J/K/mol
19.07 K, Crystal of intercomponent compound 2, relaxation calorimeter, x2 = 0.804	0.1725 ± 0.013 J/K/mol and 0.1731 ± 0.014 J/K/mol
20 K, Crystal of intercomponent compound 1, relaxation calorimetry + DSC, x2 = 0.81	0.184 ± 0.014 J/K/mol
20 K, Crystal of intercomponent compound 2, relaxation calorimetry + DSC, x2 = 0.804	0.201 ± 0.018 J/K/mol
20.09 K, Crystal of intercomponent compound 1, relaxation calorimetry, x2 = 0.81	0.187 ± 0.008 J/K/mol
20.09 K, Crystal of intercomponent compound 2, relaxation calorimeter, x2 = 0.804	0.205 ± 0.008 J/K/mol
20.1 K, Crystal of intercomponent compound 2, relaxation calorimeter, x2 = 0.804	0.203 ± 0.008 J/K/mol
21.16 K, Crystal of intercomponent compound 1, relaxation calorimetry, x2 = 0.81	0.219 ± 0.009 J/K/mol
21.16 K, Crystal of intercomponent compound 2, relaxation calorimeter, x2 = 0.804	0.24 ± 0.01 J/K/mol
21.17 K, Crystal of intercomponent compound 2, relaxation calorimeter, x2 = 0.804	0.242 ± 0.01 J/K/mol
22.28 K, Crystal of intercomponent compound 1, relaxation calorimetry, x2 = 0.81	0.255 ± 0.01 J/K/mol
22.3 K, Crystal of intercomponent compound 2, relaxation calorimeter, x2 = 0.804	0.283 ± 0.012 J/K/mol and 0.286 ± 0.012 J/K/mol
23.49 K, Crystal of intercomponent compound 2, relaxation calorimeter, x2 = 0.804	0.333 ± 0.014 J/K/mol and 0.337 ± 0.014 J/K/mol
23.51 K, Crystal of intercomponent compound 1, relaxation calorimetry, x2 = 0.81	0.297 ± 0.012 J/K/mol
24.74 K, Crystal of intercomponent compound 1, relaxation calorimetry, x2 = 0.81	0.331 ± 0.014 J/K/mol
24.75 K, Crystal of intercomponent compound 2, relaxation calorimeter, x2 = 0.804	0.391 ± 0.016 J/K/mol and 0.396 ± 0.016 J/K/mol
25 K, Crystal of intercomponent compound 1, relaxation calorimetry + DSC, x2 = 0.81	0.347 ± 0.014 J/K/mol
25 K, Crystal of intercomponent compound 2, relaxation calorimetry + DSC, x2 = 0.804	0.403 ± 0.016 J/K/mol
26.07 K, Crystal of intercomponent compound 2, relaxation calorimeter, x2 = 0.804	0.458 ± 0.019 J/K/mol and 0.454 ± 0.019 J/K/mol
26.08 K, Crystal of intercomponent compound 1, relaxation calorimetry, x2 = 0.81	0.39 ± 0.016 J/K/mol
27.47 K, Crystal of intercomponent compound 2, relaxation calorimeter, x2 = 0.804	0.534 ± 0.022 J/K/mol
27.48 K, Crystal of intercomponent compound 1, relaxation calorimetry, x2 = 0.81	0.457 ± 0.019 J/K/mol
27.48 K, Crystal of intercomponent compound 2, relaxation calorimeter, x2 = 0.804	0.531 ± 0.022 J/K/mol
28.94 K, Crystal of intercomponent compound 2, relaxation calorimeter, x2 = 0.804	0.623 ± 0.025 J/K/mol
28.95 K, Crystal of intercomponent compound 1, relaxation calorimetry, x2 = 0.81	0.534 ± 0.022 J/K/mol
28.95 K, Crystal of intercomponent compound 2, relaxation calorimeter, x2 = 0.804	0.619 ± 0.025 J/K/mol
30 K, Crystal of intercomponent compound 1, relaxation calorimetry + DSC, x2 = 0.81	0.596 ± 0.024 J/K/mol
30 K, Crystal of intercomponent compound 2, relaxation calorimetry + DSC, x2 = 0.804	0.689 ± 0.028 J/K/mol
30.48 K, Crystal of intercomponent compound 2, relaxation calorimeter, x2 = 0.804	0.723 ± 0.03 J/K/mol
30.49 K, Crystal of intercomponent compound 1, relaxation calorimetry, x2 = 0.81	0.625 ± 0.026 J/K/mol
30.5 K, Crystal of intercomponent compound 2, relaxation calorimeter, x2 = 0.804	0.718 ± 0.029 J/K/mol
32.11 K, Crystal of intercomponent compound 2, relaxation calorimeter, x2 = 0.804	0.835 ± 0.034 J/K/mol
32.12 K, Crystal of intercomponent compound 1, relaxation calorimetry, x2 = 0.81	0.728 ± 0.03 J/K/mol
32.12 K, Crystal of intercomponent compound 2, relaxation calorimeter, x2 = 0.804	0.832 ± 0.034 J/K/mol
33.83 K, Crystal of intercomponent compound 2, relaxation calorimeter, x2 = 0.804	0.964 ± 0.039 J/K/mol
33.84 K, Crystal of intercomponent compound 1, relaxation calorimetry, x2 = 0.81	0.848 ± 0.035 J/K/mol
33.84 K, Crystal of intercomponent compound 2, relaxation calorimeter, x2 = 0.804	0.961 ± 0.039 J/K/mol
35 K, Crystal of intercomponent compound 1, relaxation calorimetry + DSC, x2 = 0.81	0.934 ± 0.038 J/K/mol
35 K, Crystal of intercomponent compound 2, relaxation calorimetry + DSC, x2 = 0.804	1.056 ± 0.043 J/K/mol
35.64 K, Crystal of intercomponent compound 2, relaxation calorimeter, x2 = 0.804	1.113 ± 0.045 J/K/mol
35.65 K, Crystal of intercomponent compound 2, relaxation calorimeter, x2 = 0.804	1.109 ± 0.045 J/K/mol
35.66 K, Crystal of intercomponent compound 1, relaxation calorimetry, x2 = 0.81	0.987 ± 0.04 J/K/mol
37.54 K, Crystal of intercomponent compound 2, relaxation calorimeter, x2 = 0.804	1.278 ± 0.052 J/K/mol
37.56 K, Crystal of intercomponent compound 1, relaxation calorimetry, x2 = 0.81	1.143 ± 0.047 J/K/mol
37.56 K, Crystal of intercomponent compound 2, relaxation calorimeter, x2 = 0.804	1.272 ± 0.052 J/K/mol
39.55 K, Crystal of intercomponent compound 2, relaxation calorimeter, x2 = 0.804	1.458 ± 0.059 J/K/mol
39.56 K, Crystal of intercomponent compound 1, relaxation calorimetry, x2 = 0.81	1.315 ± 0.054 J/K/mol
39.57 K, Crystal of intercomponent compound 2, relaxation calorimeter, x2 = 0.804	1.455 ± 0.059 J/K/mol
40 K, Crystal of intercomponent compound 1, relaxation calorimetry + DSC, x2 = 0.81	1.35 ± 0.06 J/K/mol
40 K, Crystal of intercomponent compound 2, relaxation calorimetry + DSC, x2 = 0.804	1.5 ± 0.06 J/K/mol
41.66 K, Crystal of intercomponent compound 2, relaxation calorimeter, x2 = 0.804	1.664 ± 0.068 J/K/mol
41.67 K, Crystal of intercomponent compound 1, relaxation calorimetry, x2 = 0.81	1.513 ± 0.062 J/K/mol
41.68 K, Crystal of intercomponent compound 2, relaxation calorimeter, x2 = 0.804	1.659 ± 0.068 J/K/mol
43.88 K, Crystal of intercomponent compound 1, relaxation calorimetry, x2 = 0.81	1.731 ± 0.07 J/K/mol
43.89 K, Crystal of intercomponent compound 2, relaxation calorimeter, x2 = 0.804	1.888 ± 0.077 J/K/mol
43.9 K, Crystal of intercomponent compound 2, relaxation calorimeter, x2 = 0.804	1.888 ± 0.077 J/K/mol
45 K, Crystal of intercomponent compound 1, relaxation calorimetry + DSC, x2 = 0.81	1.85 ± 0.08 J/K/mol
45 K, Crystal of intercomponent compound 2, relaxation calorimetry + DSC, x2 = 0.804	2.01 ± 0.08 J/K/mol
46.22 K, Crystal of intercomponent compound 1, relaxation calorimetry, x2 = 0.81	1.98 ± 0.081 J/K/mol
